Measured values from article PMC4186771 (Journal of neurochemistry, 2013).
Each block holds one compound with its values, some of them ahead of it.

Key:
[1] = biological target: α1β2(N265C,C288)γ2 GABAAR (UniProt P18508+P47870+P62813, C260A/C282A/C319A/C341A/N289C); assay: GABA-induced currents, two-electrode voltage clamp in Xenopus laevis oocytes; assay type: cell-based, rat α1 and γ2s, human β2
[2] = biological target: β2(N265C)-containing GABAARs (UniProt P18508+P47870+P62813, C260A/C282A/C312A/C319A/C341A/N289C); assay: as above; assay type: cell-based, rat α1 and γ2s, human β2
[3] = biological target: β2(L285C)-containing GABAARs (UniProt P18508+P47870+P62813, C260A/C282A/C312A/C319A/C341A/L309C); assay: as above; assay type: cell-based, rat α1 and γ2s, human β2
[4] = biological target: α1β2γ2 Cys-less GABAAR [α1(C234A,C293A)β2(C288A)γ2(C244A,C303A)] (UniProt P18508+P47870+P62813, C260A/C282A/C312A/C319A/C341A); assay: as above; assay type: cell-based, rat α1 and γ2s, human β2; settings: for Modulation of the Cys-less receptor compared with WT: Cys-less versus wild-type α1β2γ2
α1(Q229C)β2γ2 GABAAR = α1(Q229C)β2γ2 GABAAR (UniProt P18508+P47870+P62813, C260A/C282A/C312A/C319A/C341A/Q255C); assay: as above; assay type: cell-based, rat α1 and γ2s, human β2; settings: Butanol (33 mM) modulation of EC10 GABA; after versus before BMTS labeling
α1β2(M286C)γ2 GABAAR = α1β2(M286C)γ2 GABAAR (UniProt P18508+P47870+P62813, C260A/C282A/C312A/C319A/C341A/M310C); assay: as above; assay type: cell-based, rat α1 and γ2s, human β2
Sequence of α1β2(M286C)γ2 GABAAR (P62813 28-455 C260A/C319A): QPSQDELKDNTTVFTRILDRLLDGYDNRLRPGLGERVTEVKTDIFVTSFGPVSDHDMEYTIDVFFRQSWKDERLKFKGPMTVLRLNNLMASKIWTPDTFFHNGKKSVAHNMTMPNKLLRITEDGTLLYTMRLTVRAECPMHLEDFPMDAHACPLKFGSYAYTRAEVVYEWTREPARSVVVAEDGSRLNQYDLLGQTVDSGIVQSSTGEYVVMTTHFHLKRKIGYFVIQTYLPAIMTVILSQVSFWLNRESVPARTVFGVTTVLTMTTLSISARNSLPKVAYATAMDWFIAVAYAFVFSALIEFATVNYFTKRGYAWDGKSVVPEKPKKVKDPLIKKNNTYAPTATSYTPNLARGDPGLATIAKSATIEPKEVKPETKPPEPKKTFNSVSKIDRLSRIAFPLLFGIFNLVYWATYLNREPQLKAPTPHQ
Sequence of α1β2(M286C)γ2 GABAAR (P47870 25-474 isoform P47870-1 M310C/C312A limits assumed): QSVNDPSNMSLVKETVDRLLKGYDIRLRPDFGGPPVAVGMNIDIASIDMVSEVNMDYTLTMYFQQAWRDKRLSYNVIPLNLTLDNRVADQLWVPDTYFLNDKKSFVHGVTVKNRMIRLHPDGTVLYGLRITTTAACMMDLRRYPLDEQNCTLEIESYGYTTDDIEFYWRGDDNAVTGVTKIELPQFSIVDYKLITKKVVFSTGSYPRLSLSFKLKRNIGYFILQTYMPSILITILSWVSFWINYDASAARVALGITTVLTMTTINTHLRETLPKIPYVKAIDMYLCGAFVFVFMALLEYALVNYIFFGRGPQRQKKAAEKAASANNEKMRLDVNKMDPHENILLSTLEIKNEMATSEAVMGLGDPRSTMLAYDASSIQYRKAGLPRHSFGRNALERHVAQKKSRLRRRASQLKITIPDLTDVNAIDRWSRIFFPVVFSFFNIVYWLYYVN
Sequence of α1β2(M286C)γ2 GABAAR (P18508 39-466 C282A/C341A): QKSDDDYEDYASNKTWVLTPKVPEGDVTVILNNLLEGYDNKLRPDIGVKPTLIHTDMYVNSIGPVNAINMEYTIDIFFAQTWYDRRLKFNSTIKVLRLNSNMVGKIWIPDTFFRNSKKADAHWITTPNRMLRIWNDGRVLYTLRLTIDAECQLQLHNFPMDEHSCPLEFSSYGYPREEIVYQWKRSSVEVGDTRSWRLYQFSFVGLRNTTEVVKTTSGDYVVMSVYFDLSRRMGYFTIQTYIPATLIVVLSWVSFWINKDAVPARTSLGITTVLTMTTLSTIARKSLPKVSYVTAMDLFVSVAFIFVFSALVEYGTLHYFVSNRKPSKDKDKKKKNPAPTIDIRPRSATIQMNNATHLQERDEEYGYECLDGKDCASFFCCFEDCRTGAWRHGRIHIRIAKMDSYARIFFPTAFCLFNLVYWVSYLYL

α1β2(F289C)γ2 GABAAR = α1β2(F289C)γ2 GABAAR (UniProt P18508+P47870+P62813, C260A/C282A/C312A/C319A/C341A/F313C); assay: as above; assay type: cell-based, rat α1 and γ2s, human β2
[5] = biological target: α1β2(N265C,L285C)γ2 GABAAR (UniProt P18508+P47870+P62813, C260A/C282A/C312A/C319A/C341A/L309C/N289C); assay: as above; assay type: cell-based, rat α1 and γ2s, human β2
[6] = biological target: α1β2(T225C,L285C)γ2 GABAAR (UniProt P18508+P47870+P62813, C260A/C282A/C312A/C319A/C341A/L309C/T249C); assay: as above; assay type: cell-based, rat α1 and γ2s, human β2
α1(L232C)β2γ2 GABAAR = α1(L232C)β2γ2 GABAAR (UniProt P18508+P47870+P62813, C260A/C282A/C312A/C319A/C341A/L258C); assay: as above; assay type: cell-based, rat α1 and γ2s, human β2
Sequence of α1(L232C)β2γ2 GABAAR (P62813 28-455 L258C/C260A/C319A): as the sequence (P62813 28-455 C260A/C319A) above, with L231C counted along it
Sequence of α1(L232C)β2γ2 GABAAR (P47870 25-474 isoform P47870-1 C312A limits assumed): as the sequence (P47870 25-474 isoform P47870-1 M310C/C312A limits assumed) above, with C286M counted along it
Sequence of α1(L232C)β2γ2 GABAAR (P18508 39-466 C282A/C341A): as the sequence (P18508 39-466 C282A/C341A) above

[7] = biological target: α1(L232C)β2(M286C)γ2 GABAAR (UniProt P18508+P47870+P62813, C260A/C282A/C312A/C319A/C341A/L258C/M310C); assay: as above; assay type: cell-based, rat α1 and γ2s, human β2
Sequence of α1(L232C)β2(M286C)γ2 GABAAR (P62813 28-455 L258C/C260A/C319A): as the sequence (P62813 28-455 C260A/C319A) above, with L231C counted along it
Sequence of α1(L232C)β2(M286C)γ2 GABAAR (P47870 25-474 isoform P47870-1 M310C/C312A limits assumed): as the sequence (P47870 25-474 isoform P47870-1 M310C/C312A limits assumed) above
Sequence of α1(L232C)β2(M286C)γ2 GABAAR (P18508 39-466 C282A/C341A): as the sequence (P18508 39-466 C282A/C341A) above

[8] = biological target: β2C288-containing GABAARs (UniProt P18508+P47870+P62813, C260A/C282A/C319A/C341A); assay: as above; assay type: cell-based, rat α1 and γ2s, human β2; settings: EC10 GABA; BMTS 0.5 mM co-applied with maximal GABA
α1β2(T225C)γ2 GABAAR = α1β2(T225C)γ2 GABAAR (UniProt P18508+P47870+P62813, C260A/C282A/C312A/C319A/C341A/T249C); assay: as above; assay type: cell-based, rat α1 and γ2s, human β2; settings: EC10 GABA; BMTS 0.5 mM co-applied with maximal GABA
wild-type GLIC = settings: intra-subunit binding; ref Weng et al. 2010; cited from earlier work
bovine GABAAR = settings: ref Li et al. 2010; cited from earlier work
[9] = system: recombinant α1β3γ2 GABAARs; settings: in the presence of GABA; ref Chiara et al. 2013; cited from earlier work
[10] = system: mutated alcohol-sensitive GLIC; settings: inter-subunit binding; ref Howard et al. 2011; cited from earlier work
[11] = biological target: α1(Q229C)β2(M286C)γ2 GABAAR (UniProt P18508+P47870+P62813, C260A/C282A/C312A/C319A/C341A/M310C/Q255C); assay: GABA-induced currents, two-electrode voltage clamp in Xenopus laevis oocytes; assay type: cell-based, rat α1 and γ2s, human β2; settings: change vs initial response, compared with Cys-less; EC50 GABA; DTT 2 mM 2 min
[12] = biological target: α1β2(N265C,F289C)γ2 GABAAR (UniProt P18508+P47870+P62813, C260A/C282A/C312A/C319A/C341A/F313C/N289C); assay: as above; assay type: cell-based, rat α1 and γ2s, human β2; settings: change vs initial response, compared with Cys-less; EC50 GABA; DTT 2 mM 2 min
[13] = biological target: α1β2(T225C,C288)γ2 GABAAR (UniProt P18508+P47870+P62813, C260A/C282A/C319A/C341A/T249C); assay: as above; assay type: cell-based, rat α1 and γ2s, human β2; settings: change vs initial response, compared with Cys-less; EC50 GABA; DTT 2 mM 2 min
[14] = biological target: α1(L232C)β2(F289C)γ2 GABAAR (UniProt P18508+P47870+P62813, C260A/C282A/C312A/C319A/C341A/F313C/L258C); assay: as above; assay type: cell-based, rat α1 and γ2s, human β2; settings: change vs initial response, compared with Cys-less; 100 μM GABA; DTT 2 mM 2 min
[15] = biological target: α1β2(N265C,M286C)γ2 GABAAR (UniProt P18508+P47870+P62813, C260A/C282A/C312A/C319A/C341A/M310C/N289C); assay: as above; assay type: cell-based, rat α1 and γ2s, human β2; settings: change vs initial response, compared with Cys-less; EC50 GABA; DTT 2 mM 2 min
[16] = biological target: α1(Q229C)β2(N265C)γ2 GABAAR (UniProt P18508+P47870+P62813, C260A/C282A/C312A/C319A/C341A/N289C/Q255C); assay: as above; assay type: cell-based, rat α1 and γ2s, human β2; settings: change vs initial response, compared with Cys-less; EC50 GABA; DTT 2 mM 2 min
[17] = biological target: α1β2(T225C,N265C)γ2 GABAAR (UniProt P18508+P47870+P62813, C260A/C282A/C312A/C319A/C341A/N289C/T249C); assay: as above; assay type: cell-based, rat α1 and γ2s, human β2; settings: change vs initial response, compared with Cys-less; 1 mM GABA; DTT 2 mM 2 min
[18] = Butanol modulation of EC10 GABA, 11 and 33 mM, after Cu^++:Phen versus after DTT
[19] = Butanol (33 mM) modulation of EC10 GABA, after versus before BMTS labeling
[20] = single cysteine mutant, no treatment
[21] = EC10 GABA, BMTS 0.5 mM co-applied with maximal GABA
[22] = Isoflurane 0.3 mM on EC10 GABA, after versus before BMTS labeling
[23] = Isoflurane 0.3 and 0.9 mM on EC10 GABA, after Cu^++:Phen versus after DTT
[24] = change vs initial response, compared with Cys-less, EC50 GABA, DTT 2 mM 2 min

Structure (SMILES): CCCCO [Butanol, butanol]
- Butanol effect After crosslink [1, 18]: Decrease
- Butanol effect after BMTS labeling [2, 19]: Decrease
- Butanol potentiation of GABA responses compared with the Cys-less receptor [2, 20]: decreased
- Butanol effect after BMTS labeling [3, 19]: No change
- Butanol potentiation of GABA responses compared with the Cys-less receptor [3, 20]: decreased
- Butanol effect after BMTS labeling [4, 19]: No change/ Small decrease
- Butanol effect After crosslink [4, 18]: No change
- Butanol effect after BMTS labeling (α1(Q229C)β2γ2 GABAAR): No change
- Butanol effect after BMTS labeling (α1β2(M286C)γ2 GABAAR; [19]): Decrease
- Butanol potentiation of GABA responses compared with the Cys-less receptor (α1β2(M286C)γ2 GABAAR; [20]): decreased
- Butanol potentiation of GABA responses compared with the Cys-less receptor (α1β2(F289C)γ2 GABAAR; [20]): decreased
- Butanol effect After crosslink [5, 18]: Decrease
- Butanol effect After crosslink [6, 18]: Decrease
- Change in the butanol potentiation after oxidation ([6]; Butanol on EC10 GABA, after Cu^++:Phen versus after DTT): −51%
- Butanol effect after BMTS labeling (α1(L232C)β2γ2 GABAAR; [19]): No change
- Butanol potentiation of GABA responses compared with the Cys-less receptor (α1(L232C)β2γ2 GABAAR; [20]): decreased
- Butanol effect After crosslink [7, 18]: No change

Structure (SMILES): CCCCSS(C)(=O)=O [BMTS, butyl methanethiosulfonate]
- GABA responses after BMTS + GABA [4, 21]: No change
- GABA responses after BMTS + GABA (α1β2(M286C)γ2 GABAAR; [21]): Increase
- GABA responses after BMTS + GABA [8]: No change
- GABA responses after BMTS + GABA (α1β2(T225C)γ2 GABAAR): No net change
- GABA responses after BMTS + GABA (α1(L232C)β2γ2 GABAAR; [21]): Increase

Structure (SMILES): CC(C)c1cccc(C(C)C)c1O [propofol]
- Effect on channel function (wild-type GLIC): inhibits

Structure (SMILES): FC(F)OC(Cl)C(F)(F)F (stereo not drawn) [Isoflurane]
- Isoflurane potentiation after BMTS labeling [2, 22]: decreased
- Isoflurane potentiation after BMTS labeling (α1β2(M286C)γ2 GABAAR; [22]): decreased
- Isoflurane effect after BMTS labeling (α1β2(F289C)γ2 GABAAR; EC10 GABA, after versus before BMTS treatment, data not shown): switched from very small, and even inhibitory effects, to potentiation
- Isoflurane potentiation of GABA responses compared with the Cys-less receptor (α1β2(F289C)γ2 GABAAR; [20]): decreased
- Isoflurane potentiation after oxidation (crosslink) [6, 23]: decrease
- Isoflurane effect after oxidation (crosslink) [7, 23]: no changes
- Block of etomidate analog photolabeling (bovine GABAAR): isoflurane could

Structure (SMILES): CCCCCCCCO [octanol]
- Block of etomidate analog photolabeling (bovine GABAAR): neither octanol nor ethanol could block
- Block of photolabeling [9]: blocked

Structure (SMILES): FC(F)OC(F)C(F)(F)F (stereo not drawn) [desflurane]
- Effect on channel function (wild-type GLIC): inhibits

Structure (SMILES): [Zn] [zinc]
- Modulation of the Cys-less receptor compared with WT [4]: essentially the same as WT

Structure (SMILES): CCO [ethanol]
- Modulation of the Cys-less receptor compared with WT [4]: essentially the same as WT
- Effect on channel function [10]: potentiates

- GABA responses After DTT [1, 24]: No change
- GABA responses After DTT [11]: Increase
- GABA responses After DTT ([4]; change vs initial response, EC50 GABA, DTT 2 mM 2 min): No change
- GABA responses After DTT [12]: Increase
- GABA responses After DTT [5, 24]: No change
- GABA responses After DTT [13]: Increase
- GABA responses After DTT [14]: Increase
- GABA responses After DTT [6, 24]: No change
- GABA responses After DTT [15]: Decrease
- GABA responses After DTT [16]: Decrease
- GABA responses After DTT [7, 24]: No change
- GABA responses After DTT [17]: Increase
Structure (SMILES): O[C@@H](CS)[C@@H](O)CS (racemic) [DTT, dithiothreitol]
